Results from publication PMC10141592, “Stretching Peptides to Generate Small Molecule β-Strand Mimics” (ACS Central Science, 2023).
In brackets after ≈: the same amount, converted by molar mass. Read-outs that look alike come from different tables or passages of the source. *1 amine or outer side, *2 acyl side, *3 side chain or, on linkers, in order; H or OH if unused. Where a SMILES comes first, the peptide text is derived from it. Bridges are numbered along the chain shown (N, C = ends). [ ]: non-standard residue; d: D form. The star is where a group is joined. Dodecyloxycarbonyl = CCCCCCCCCCCCOC(=O)*; CH2C≡CC≡CCH2 = C(C#CC[*:2])#CC[*:1]; NMePra = C#CC[C@H](NC)C(=O)O; X1 = CCCCCCCCCCCCCCCCOC(=O)*; NMeS = CN[C@@H](CO)C(=O)O; Dab = NCC[C@H](N)C(=O)O; Propargyl = C#CC*

What was measured:
S. epidermidis RP26a [1] = format: cell-based; conditions: 24 h
Procedure: (§1) Minimum Inhibitory Concentration Assay
(§2) MICs were performed in accordance with the broth microdilution protocol from the Clinical and Standards Laboratory Institute.3 Alkynomycins were dissolved at 10 mg/mL in DMSO and two-fold serial dilutions were made across a 96-well plate containing Muller-Hinton (MH) broth. One plate was used for each indicator organism, and each well reached a final inoculum of 5×10^5 colony forming units per mL. Using OD600 readings normalized to a negative control, MICs were recorded as the lowest concentration at which growth was inhibited after a 24 hr incubation at 37 C. Controls were included on each plate to ensure peptide and media sterility. MICs are reported in Table 2 and Tables S4, S5 as an average of at least three independent trials.
(§3) Indicator organisms were stored at -80 C as glycerol stocks. Each organism was streaked onto tryptic soy agar and grown for 24 hr at 37 C. Single colonies were picked and used to inoculate MH broth. Bacteria culture was diluted to reach an OD600 of 0.015 prior to being used for MIC assays. […]

E. coli MG1655 [2] = format: cell-based; conditions: MG1655, 24 h
Procedure: as §1, §2, §3

[3] = system: E. coli BAS901 (permeabilized); format: cell-based; conditions: CLSI broth microdilution, Muller-Hinton broth, 5×10^5 CFU/mL, 24 hr at 37 C, OD600, performed in triplicate
Procedure: as §1, §2, §3

MRSA USA 300 [4] = format: cell-based; conditions: USA 300, 24 h
Procedure: as §1, §2, §3

MRSA USA 300 [5] = conditions: previously reported value provided for reference; cited from earlier work
From the text: Table 2 Minimum Inhibitory Concentration of Alkynomycins against Gram-Positive and Gram-Negative Bacteria ^a | column: MRSA

[6] = system: E. coli BAS901 (permeabilized); conditions: previously reported value provided for reference; cited from earlier work
E. coli MG1655 [7] = system: E. coli MG1655; set-up: method as in 2 sources, ref 38 = [38]; PMID 21095572; doi:10.1016/j.chembiol.2010.09.009; Smith P. A.; Roberts T. C.; Romesberg F. E. Broad-spectrum antibiotic activity of the arylomycin natural products is masked by natural target mutations . Chem. Biol. 2010 , 17 ( 11 ), 1223 – 1231 . ||| ref 38 (a number printed in a supplementary file, which may have a reference list of its own: not looked up in the article's list); conditions: previously reported value provided for reference; cited from earlier work
S. epidermidis RP26a [8] = system: S. epidermidis RP26a; set-up: method as in 2 sources, ref 38 = [38]; PMID 21095572; doi:10.1016/j.chembiol.2010.09.009; Smith P. A.; Roberts T. C.; Romesberg F. E. Broad-spectrum antibiotic activity of the arylomycin natural products is masked by natural target mutations . Chem. Biol. 2010 , 17 ( 11 ), 1223 – 1231 . ||| ref 38 (a number printed in a supplementary file, which may have a reference list of its own: not looked up in the article's list); conditions: previously reported value provided for reference; cited from earlier work

Row | Molecule | MIC S. epidermidis (S. epidermidis RP26a [1]) | MIC E. coli (E. coli MG1655 [2]) | MIC E. coli Δ [3] | MIC MRSA (MRSA USA 300 [4]) | MIC MRSA (MRSA USA 300 [5]) | MIC E. coli Δ [6] | MIC E. coli (E. coli MG1655 [7]) | MIC S. epidermidis (S. epidermidis RP26a [8])
1 | CCCCCCCCCCCCCCCCOC(=O)N[C@@H](CCN)C(=O)N(C)[C@H]1COCC#CC#CCOC[C@@H](C(N)=O)NC(=O)[C@H](C)NC1=O [Compound S8] (X1-[Dab][NMeS]AS-NH2; linker 2-4 via CH2C≡CC≡CCH2) | 64 µg/mL (≈ 89 µM) | > 64 µg/mL | 64 µg/mL (≈ 89 µM) |  |  |  |  | 
2 | CCCCCCCCCCCCCCCCOC(=O)N[C@@H](CCN)C(=O)N(C)[C@H]1CC#CC#CCOC[C@@H](C(N)=O)NC(=O)[C@H](C)NC1=O [Compound 15] | 32 µg/mL (≈ 46.5 µM) | > 64 µg/mL | 16 µg/mL (≈ 23.2 µM) | 16 µg/mL (≈ 23.2 µM) |  |  |  | 
3 | CCCCCCCCCCCCOC(=O)N[C@@H](CCN)C(=O)N(C)[C@H]1CC#CC#CC[C@H](C(N)=O)NC(=O)[C@H](C)NC1=O [Compound S1] | > 64 µg/mL | > 64 µg/mL | > 64 µg/mL |  |  |  |  | 
4 | CCCCCCCCCCCCOC(=O)N[C@@H](CCN)C(=O)N(C)[C@@H]1CC#CC#CC[C@H](C(N)=O)NC(=O)[C@H](C)NC1=O [Compound 12] | 16 µg/mL (≈ 26.5 µM) | > 64 µg/mL | 16 µg/mL (≈ 26.5 µM) |  |  |  |  | 
5 | CCCCCCCCCCCCCCCCOC(=O)N[C@@H](CCN)C(=O)N(C)[C@H]1COCC#CC#CC[C@H](C(N)=O)NC(=O)[C@H](C)NC1=O [Compound S6] | 64 µg/mL (≈ 92.9 µM) | > 64 µg/mL | 64 µg/mL (≈ 92.9 µM) |  |  |  |  | 
6 | CCCCCCCCCCCCOC(=O)N[C@@H](CCN)C(=O)N[C@H]1CC#CC#CC[C@@H](C(N)=O)NC(=O)[C@H](C)NC1=O [Compound S9] | > 64 µg/mL | > 64 µg/mL | > 64 µg/mL |  |  |  |  | 
7 | CCCCCCCCCCCCCCCCOC(=O)N[C@@H](CCN)C(=O)N(C)[C@H]1COCC#CC#CC[C@@H](C(N)=O)NC(=O)[C@H](C)NC1=O [Compound S4] | 64 µg/mL (≈ 92.9 µM) | > 64 µg/mL | 64 µg/mL (≈ 92.9 µM) |  |  |  |  | 
8 | CCCCCCCCCCCCCCCCOC(=O)N[C@@H](CCN)C(=O)N(C)[C@H]1CC#CC#CC[C@H](C(N)=O)NC(=O)[C@H](C)NC1=O [Compound S2] | > 64 µg/mL | > 64 µg/mL | > 64 µg/mL |  |  |  |  | 
9 | CCCCCCCCCCCCOC(=O)N[C@@H](CCN)C(=O)N(C)[C@H]1COCC#CC#CC[C@@H](C(N)=O)NC(=O)[C@H](C)NC1=O [Compound S3] | > 64 µg/mL | > 64 µg/mL | > 64 µg/mL |  |  |  |  | 
10 | CCCCCCCCCCCCOC(=O)N[C@@H](CCN)C(=O)N(C)[C@H]1COCC#CC#CC[C@H](C(N)=O)NC(=O)[C@H](C)NC1=O [Compound S5] | > 64 µg/mL | > 64 µg/mL | > 64 µg/mL |  |  |  |  | 
11 | CCCCCCCCCCCCOC(=O)N[C@@H](CCN)C(=O)N(C)[C@H]1CC#CC#CCOC[C@@H](C(N)=O)NC(=O)[C@H](C)NC1=O [Compound 14] | 16 µg/mL (≈ 25.3 µM) | > 64 µg/mL | 16 µg/mL (≈ 25.3 µM) | 16 µg/mL (≈ 25.3 µM) |  |  |  | 
12 | CCCCCCCCCCCCCCCCOC(=O)N[C@@H](CCN)C(=O)N(C)[C@H]1CC#CC#CC[C@@H](C(N)=O)NC(=O)[C@H](C)NC1=O [Compound 11] | 4 µg/mL (≈ 6.07 µM) | > 64 µg/mL | 4 µg/mL (≈ 6.07 µM) | 8 µg/mL (≈ 12.1 µM) |  |  |  | 
13 | CCCCCCCCCCCCCCCCOC(=O)N[C@@H](CCN)C(=O)N(C)[C@@H]1CC#CC#CC[C@H](C(N)=O)NC(=O)[C@H](C)NC1=O [Compound 13] | 16 µg/mL (≈ 24.3 µM) | > 64 µg/mL | 32 µg/mL (≈ 48.6 µM) |  |  |  |  | 
14 | C#CCOC[C@H](NC(=O)[C@H](C)NC(=O)[C@H](CC#C)N(C)C(=O)[C@H](CCN)NC(=O)OCCCCCCCCCCCC)C(N)=O [Compound S10] (Dodecyloxycarbonyl-[Dab][NMePra]AS(Propargyl)-NH2) | > 64 µg/mL | > 64 µg/mL |  |  |  |  |  | 
15 | CCCCCCCCCCCCOC(=O)N[C@@H](CCN)C(=O)N(C)[C@H]1CC#CC#CC[C@@H](C(N)=O)NC(=O)[C@H](C)NC1=O [Compound 10] | 4 µg/mL (≈ 6.64 µM) |  | 4 µg/mL (≈ 6.64 µM) | 16 µg/mL (≈ 26.5 µM) |  |  |  | 
16 | Arylomycin A-C16 |  |  |  |  | 32 µg/mL | 8 µg/mL | > 64 µg/mL | 0.5 µg/mL
17 | CCCCCCCCCCCCOC(=O)N[C@@H](CCN)C(=O)N(C)[C@H]1COCC#CC#CCOC[C@@H](C(N)=O)NC(=O)[C@H](C)NC1=O [Compound S7] (Dodecyloxycarbonyl-[Dab][NMeS]AS-NH2; linker 2-4 via CH2C≡CC≡CCH2) | > 64 µg/mL | > 64 µg/mL | > 64 µg/mL |  |  |  |  | 
